One assay addresses T1, human renin (Homo sapiens, UniProt P00797).
T1 construct: purchased National Institute for Biological Standards, London
T1 sequence (P00797 67-406): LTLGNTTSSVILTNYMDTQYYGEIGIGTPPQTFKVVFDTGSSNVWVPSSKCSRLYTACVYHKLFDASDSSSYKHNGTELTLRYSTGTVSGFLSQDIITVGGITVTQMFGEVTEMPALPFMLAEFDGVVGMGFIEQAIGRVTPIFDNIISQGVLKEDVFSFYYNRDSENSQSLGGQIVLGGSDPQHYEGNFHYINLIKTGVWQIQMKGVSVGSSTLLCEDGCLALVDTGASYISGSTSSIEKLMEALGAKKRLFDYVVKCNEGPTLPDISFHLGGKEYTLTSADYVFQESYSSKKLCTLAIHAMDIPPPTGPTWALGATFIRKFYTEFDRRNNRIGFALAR
Put plainly: Human renin inhibition in vitro. It is filed as biochemical. The method, then:
Compounds of Formula I were evaluated as inhibitors of human renin in an in vitro assay, as follows: This human renin inhibition test has been previously described in detail [Papaioannou et al., Clinical and Experimental Hypertension, A7(9), 1243-1257 (1985)]. Human renin was obtained from the National Institute for Biological Standards, London. An incubation mixture was prepared containing the following components: in a total volume of 0.25 mL: 100 mM Tris-acetate buffer at pH 7.4, 25×10^−6 Goldblatt units of renin, 0.05 mL of plasma from human volunteers taking oral contraceptives, 6.0 mM Na-EDTA, 2.4 mM phenylmethyl sulfonyl fluoride, 1.5 mM 8-hydroxyquinoline, 0.4 mg/mL bovine serum albumin (BSA), and 0.024 mg/mL neomycin sulfate. This mixture was incubated for two hours at 37° C. in the presence or absence of renin inhibitors. The produced angiotensin I was determined by radioimmunoassay (New England Nuclear kit). Test compounds to be assayed were dissolved in DMSO and diluted with 100 mM Tris-acetate buffer at pH 7.4 containing 0.5% BSA to the appropriate concentration. The final concentration of organic solvent in the reaction mixture was less than 1%. Control incubations at 37° C. were used to correct for effects of organic solvent on renin activity.

Assay [1] concerns Plasma Renin Activity (PRA). In words: Marmoset plasma renin activity (PRA) reduction on oral administration. The settings on record: IG; for inhibition at 0.1 mg/kg / inhibition at 1 mg/kg: Primates, po. It is filed as in vivo, Marmoset monkeys (Callithrix jacchus). The method, then: The oral activity of renin inhibitor compounds was determined in vivo in Marmoset monkeys using the following procedure. Common Marmoset monkeys (Callithrix jacchus, Charles River, both sexes, body weight 300-400 g) were placed on a modified high-protein low-sodium diet (Purina, St. Louis, Mo.) for 1 week. About 24 hours prior to the administration of test compound, Lasix (5 mg/kg, im) was given. On the day of the test, the animal was anesthetized with isoflurane, body weight recorded, and a baseline blood sample taken. Then, test compound was given intragastrically and blood samples were taken in K-EDTA for plasma renin activity at appropriate time intervals. The PRA was determined by using the protocol outlined below. Results are expressed in terms of PRA at various time intervals both before and after compound administrations (“Pre” means pretreatment levels before compound administrations). Also included is percent inhibition (% INH from pretreatment levels).
I. Angiotensin I Generation
25 ml of the above reaction mixtures, in duplicate, were incubated at 37° C. or 0° C. for 2 hours.
II. Determination of Angiotensin I Concentrations
Angiotensin I (AI) concentrations were determined by radioimmunoassays with a commercial kit from NEN Co.
III. Calculation of Plasma Renin Activity
PRA (ng AI/ml/hr)=(AI at 37°−AI at 0°)/2 hr.

Setting [2] is: 0.1 MPK, 60 min, individual monkeys.
The mark [3] stands for this setting: 0.1 MPK, 60 min from dosing, individual monkeys.
The mark [4] stands for this setting: 0.1 MPK, 120 min, individual monkeys.
The mark [5] stands for this setting: 0.1 MPK, 120 min from dosing, individual monkeys.
[6] abbreviates: 0.1 MPK, 240 min, individual monkeys.
The mark [7] stands for this setting: 0.1 MPK, 240 min from dosing, individual monkeys.
Where [8] appears, read: 0.1 MPK, Pre (pretreatment level), individual monkeys.
[9] abbreviates: 0.1 MPK, 60 min, individual monkeys, read-out: % INH (from pretreatment PRA).
Where [10] appears, read: 0.1 MPK, 240 min, individual monkeys, read-out: % INH (from pretreatment PRA).
The mark [11] stands for this setting: 1 h, 0.1 MPK, 60 min, mean of monkeys A-C, read-out: MEAN % INH.
[12] abbreviates: 2 h, 0.1 MPK, 120 min, mean of monkeys A-C, read-out: MEAN % INH.
[13] abbreviates: 4 h, 0.1 MPK, 240 min, mean of monkeys A-C, read-out: MEAN % INH.

The source of these data is patent US6515025B2, “Use of ethynyl alanine amino diol compounds to inhibit enzymatic conversion of angiotensinogen to angiotensin I” (Pharmacia Corporation, priority 1991, dated 2003).

Where “and” joins values, the source holds several entries; their conditions need not be identical. Equal values may be shown once. Read-outs that look alike come from different tables or passages of the source.

A word on the IC50: it is the concentration at which inhibition is half-maximal. Low values mean greater potency, high ones weaker potency. `C#CC[C@H](NC(=O)C(Cc1ccccc1)OC(=O)N(C)CCN(C)C)C(=O)NC(CC1CCCCC1)[C@@H](O)C(O)CC(C)C` (relative stereo) [Example 2, [1R*-[[[1R*-[[[1S,1R*-(Cyclohexylmethyl)-2S*,3R*-dihydroxy-5-methylhexyl]amino]carbonyl]-3-butynyl]amino]carbonyl]-2-phenylethyl)[2-(dimethylamino)ethyl]methylcarbamate] showed an IC50 on human renin of 4 nM. In addition, the “% INH (from pretreatment PRA)” value was 71.5% and 81.2% in assay [1] (setting [2]); 86.4% and 64.8% and 78.7% in assay [1] (setting [4]); 57.2% and 58.2% in assay [1] (setting [6]). The PRA was 3.9 ngAI/ml/hr and 33.9 ngAI/ml/hr and 12.7 ngAI/ml/hr in assay [1] (setting [3]); 5.7 ngAI/ml/hr and 41.8 ngAI/ml/hr and 14.4 ngAI/ml/hr in assay [1] (setting [5]); 28.5 ngAI/ml/hr and 18.1 ngAI/ml/hr and 49.7 ngAI/ml/hr in assay [1] (setting [7]); 42.2 ngAI/ml/hr and 118.8 ngAI/ml/hr and 67.5 ngAI/ml/hr in assay [1] (setting [8]). Besides, the inhibition at 0.1 mg/kg in assay [1] (setting [9]) is 90.7%; in assay [1] (setting [10]) it was 57.7%; in assay [1] (setting [11]), 81.1 ± 6%; in assay [1] (setting [12]), 76.6 ± 6%; in assay [1] (setting [13]), 57.7%.

On to `C#CCC(NC(=O)C(Cc1ccccc1)OC(=O)N(C)CCN(C)C)C(=O)NC(CC1CCCCC1)[C@@H](O)C(O)CC(C)C` (stereo in doubt) [Example 3, [1R*-[[[1-[[[1S,1R*-(Cyclohexylmethyl)-2S*,3R*-dihydroxy-5-methylhexyl]amino]carbonyl]-3-butynyl]amino]carbonyl]-2-phenylethyl[]2-(dimethylamino)ethyl]methylcarbamate], for which the IC50 against human renin worked out at 3 nM. Further, the “% INH (from pretreatment PRA)” value was 60.7% and 66.7% in assay [1] (setting [2]); 46.9% and 60.3% in assay [1] (setting [4]); 63.9% and 48% in assay [1] (setting [6]). Besides, the PRA is 42.1 ngAI/ml/hr and 29.8 ngAI/ml/hr and 27.8 ngAI/ml/hr in assay [1] (setting [3]); 47.1 ngAI/ml/hr and 40.3 ngAI/ml/hr and 33.2 ngAI/ml/hr in assay [1] (setting [5]); 36.1 ngAI/ml/hr and 38.1 ngAI/ml/hr and 39.5 ngAI/ml/hr in assay [1] (setting [7]); 105.5 ngAI/ml/hr and 76 ngAI/ml/hr and 83.7 ngAI/ml/hr in assay [1] (setting [8]); 0 ngAI/ml/hr in assay [1] (1.0 MPK, 60 min from dosing, individual monkeys); 0 ngAI/ml/hr in assay [1] (1.0 MPK, 120 min from dosing, individual monkeys). The PRA in assay [1] (1.0 MPK, 240 min from dosing, individual monkeys) is 0 ngAI/ml/hr; in assay [1] (1.0 MPK, Pre (pretreatment level), individual monkeys), 70.5 ngAI/ml/hr and 185.4 ngAI/ml/hr and 76.1 ngAI/ml/hr. For the same molecule, the inhibition at 0.1 mg/kg in assay [1] (setting [9]) worked out at 60.1%; in assay [1] (0.1 MPK, 120 min, individual monkeys, read-out: % INH (from pretreatment PRA)), 55.3%; in assay [1] (setting [10]) it was 56.8%; in assay [1] (setting [11]), 62.5 ± 2%; in assay [1] (setting [12]) it was 54.2 ± 4%; in assay [1] (setting [13]) it was 56.2 ± 5%. Besides, the inhibition at 1 mg/kg stood at 100% in assay [1] (1.0 MPK, 60 min, individual monkeys, read-out: % INH (from pretreatment PRA)); 100% in assay [1] (1.0 MPK, 120 min, individual monkeys, read-out: % INH (from pretreatment PRA)); 100% in assay [1] (1.0 MPK, 240 min, individual monkeys, read-out: % INH (from pretreatment PRA)); 100% in assay [1] (1.0 MPK, printed on the Pre line, read-out: % INH); 100% in assay [1] (1 h, 1.0 MPK, 60 min, mean of monkeys, read-out: MEAN % INH); 100% in assay [1] (2 h, 1.0 MPK, 120 min, mean of monkeys, read-out: MEAN % INH). For the same molecule, in assay [1] (4 h, 1.0 MPK, 240 min, mean of monkeys, read-out: MEAN % INH), the inhibition at 1 mg/kg amounted to 100%.

Molecule `C#CC[C@H](NC(=O)[C@@H](CC(=O)N(C)CCN(CC)CC)Cc1ccccc1)C(=O)N[C@@H](CC1CCCCC1)[C@@H](O)[C@@H](O)CC(C)C` [Example 4] displayed a concentration for half-maximal inhibition (IC50) against human renin of 1 nM.
